Values after ≈ are worked out from the molar mass of the structure shown.
Assays:
Assay in all cases: In vitro antibacterial evaluation: minimum inhibitory concentration (MIC), broth dilution method
Type in all cases: cell-based
Conditions in all cases: broth dilution, 18 hours at 35° C.
Escherichia coli = test system: Escherichia coli
Staphylococcus sp. = test system: Staphylococcus sp.
Summary of the method: (§1)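 Test strains, among them recent clinical isolates carrying methicillin, penicillin and/or vancomycin resistance, were inoculated at 5×10^5 CFU/mL. A broth dilution series spanning 64-0.06 μg/mL in Muller-Hinton II […] (NCCLS M7-A2) defined the MIC as the lowest growth-inhibiting concentration.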

Enterococcus sp. = test system: Enterococcus sp.
Summary of the method: as §1

Streptococcus sp. = test system: Streptococcus sp.
Summary of the method: as §1

MIC Escherichia coli (ATCC 25922) (Escherichia coli): 16 µg/mL (≈ 13.6 µM) | MIC Escherichia coli (GC 4559) (Escherichia coli): 8 µg/mL (≈ 6.78 µM) | MIC Escherichia coli (GC 4560) (Escherichia coli): 4 µg/mL (≈ 3.39 µM) | MIC Coagulase Negative Staphylococcus (GC 4547) (Staphylococcus sp.): 4 µg/mL (≈ 3.39 µM) | MIC Coagulase Negative Staphylococcus (GC 4548) (Staphylococcus sp.): 2 µg/mL (≈ 1.69 µM) | MIC Coagulase Negative Staphylococcus (GC 4549) (Staphylococcus sp.): 1 µg/mL (≈ 0.847 µM) | MIC Coagulase Negative Staphylococcus (GC 4551) (Staphylococcus sp.): 4 µg/mL (≈ 3.39 µM) | MIC Staphylococcus aureus SMITH (GC 4543) (Staphylococcus sp.): 2 µg/mL (≈ 1.69 µM) | MIC Staphylococcus aureus-SMITH (GC 4543) (Staphylococcus sp.; strain SMITH GC 4543): 2 µg/mL (≈ 1.69 µM) | MIC Enterococcus avium (GC 4558) (Enterococcus sp.; Enterococcus avium (GC 4558)): 4 µg/mL (≈ 3.39 µM) | MIC Enterococcus faecalis (ATCC 29212) (Enterococcus sp.; Enterococcus faecalis (ATCC 29212)): 16 µg/mL (≈ 13.6 µM) | MIC Enterococcus faecalis (GC 2242) (Enterococcus sp.; Enterococcus faecalis (GC 2242)): 16 µg/mL (≈ 13.6 µM) | MIC Enterococcus faecalis (GC 2691) (Enterococcus sp.; Enterococcus faecalis (GC 2691)): 16 µg/mL (≈ 13.6 µM) | MIC Enterococcus faecalis (GC 3059) (Enterococcus sp.; Enterococcus faecalis (GC 3059)): 32 µg/mL (≈ 27.1 µM) | MIC Enterococcus faecalis (GC 4552) (Enterococcus sp.; Enterococcus faecalis (GC 4552)): 2 µg/mL (≈ 1.69 µM) | MIC Enterococcus faecalis (GC 4553) (Enterococcus sp.; Enterococcus faecalis (GC 4553)): 4 µg/mL (≈ 3.39 µM) | MIC Enterococcus faecalis (GC 4554) (Enterococcus sp.; Enterococcus faecalis (GC 4554)): 16 µg/mL (≈ 13.6 µM) | MIC Enterococcus faecalis (GC 6189) (Enterococcus sp.; Enterococcus faecalis (GC 6189)): 16 µg/mL (≈ 13.6 µM) | MIC Enterococcus faecium (GC 2243) (Enterococcus sp.; Enterococcus faecium (GC 2243)): 8 µg/mL (≈ 6.78 µM) | MIC Enterococcus faecium (GC 4556) (Enterococcus sp.; Enterococcus faecium (GC 4556)): 8 µg/mL (≈ 6.78 µM) | MIC Enterococcus faecium (GC 4557) (Enterococcus sp.; Enterococcus faecium (GC 4557)): 2 µg/mL (≈ 1.69 µM) | MIC Enterococcus avium (GC 4558) (Enterococcus sp.): 4 µg/mL (≈ 3.39 µM) | MIC Enterococcus faecalis (ATCC 29212) (Enterococcus sp.): 16 µg/mL (≈ 13.6 µM) | MIC Enterococcus faecalis (GC 2242) (Enterococcus sp.): 16 µg/mL (≈ 13.6 µM) | MIC Enterococcus faecalis (GC 2691) (Enterococcus sp.): 16 µg/mL (≈ 13.6 µM) | MIC Enterococcus faecalis (GC 3059) (Enterococcus sp.): 32 µg/mL (≈ 27.1 µM) | MIC Enterococcus faecalis (GC 4552) (Enterococcus sp.): 2 µg/mL (≈ 1.69 µM) | MIC Enterococcus faecalis (GC 4553) (Enterococcus sp.): 4 µg/mL (≈ 3.39 µM) | MIC Enterococcus faecalis (GC 4554) (Enterococcus sp.): 16 µg/mL (≈ 13.6 µM) | MIC Enterococcus faecalis (GC 6189) (Enterococcus sp.): 16 µg/mL (≈ 13.6 µM) | MIC Enterococcus faecium (GC 2243) (Enterococcus sp.): 8 µg/mL (≈ 6.78 µM) | MIC Enterococcus faecium (GC 4556) (Enterococcus sp.): 8 µg/mL (≈ 6.78 µM) | MIC Enterococcus faecium (GC 4557) (Enterococcus sp.): 2 µg/mL (≈ 1.69 µM) | MIC Streptococcus agalactiae (GC 4564) (Streptococcus sp.; Streptococcus agalactiae (GC 4564)): 4 µg/mL (≈ 3.39 µM) | MIC Streptococcus pneumoniae (ATCC 6301) (Streptococcus sp.; Streptococcus pneumoniae (ATCC 6301)): 8 µg/mL (≈ 6.78 µM) | MIC Streptococcus pneumoniae (GC 1894) (Streptococcus sp.; Streptococcus pneumoniae (GC 1894)): 8 µg/mL (≈ 6.78 µM) | MIC Streptococcus pneumoniae (GC 4565) (Streptococcus sp.; Streptococcus pneumoniae (GC 4565)): 8 µg/mL (≈ 6.78 µM) | MIC Streptococcus pyogenes (GC 4563) (Streptococcus sp.; Streptococcus pyogenes (GC 4563)): 2 µg/mL (≈ 1.69 µM) | MIC Streptococcus agalactiae (GC 4564) (Streptococcus sp.): 4 µg/mL (≈ 3.39 µM) | MIC Streptococcus pneumoniae (ATCC 6301) (Streptococcus sp.): 8 µg/mL (≈ 6.78 µM) | MIC Streptococcus pneumoniae (GC 1894) (Streptococcus sp.): 8 µg/mL (≈ 6.78 µM) | MIC Streptococcus pneumoniae (GC 4565) (Streptococcus sp.): 8 µg/mL (≈ 6.78 µM) | MIC Streptococcus pyogenes (GC 4563) (Streptococcus sp.): 2 µg/mL (≈ 1.69 µM)
SMILES: CC(c1ccccc1)C1NC(=O)CNC(=O)C(CO)NC(=O)C(C(O)C2CNC(=N)N2C2OC(CO)C(O)C(O)C2O)NC(=O)C(C(O)C2CNC(=N)N2)NC(=O)C(Cc2ccc3oc(SCC(=O)c4ccc(Cl)cc4)nc3c2)NC1=O (centres unmarked) [Example 49]
MIC Staphylococcus haemolyticus (GC 4546) (Staphylococcus sp.): 1 µg/mL (≈ 0.847 µM)

— patent US8247211B2, “Glycopeptide antibiotics” (American Cyanamid Company, priority 2001, dated 2012)
